In patent US20240101544A1, “INHIBITORS OF QPCTL AND QPCT” (priority 2022, published 2024):

What was measured:
QPCT (rhQPCT) = QPCT (rhQPCT) (Homo sapiens (Human), UniProt Q16769); assay: QPCT Enzymatic Activity Assay (coupled-enzyme fluorescent assay, H-Gln-AMC substrate); type: biochemical; settings: rhQPCT 10-12 nM, 10 μM H-Gln-AMC; read-out: QPCT Inhibition IC50
Protocol: QPCT activity was measured in a coupled-enzyme assay using the QPCT substrate, glutamine-7-amido-4-methylcoumarin (H-Gln-AMC, Bachem), which is converted to pyroglutamyl-AMC by QPCT. Pyroglutamyl-AMC is then converted to the fluorescent molecule, AMC, by incubation with the human enzyme pyroglutamyl peptidase-1 (PGPEP-1). […] Following the incubation, H-Gln-AMC substrate was diluted in assay buffer and added to each well for a final concentration of 10 μM. The reaction was incubated for 60 min at 37° C., before stopping it by boiling at 100° C. for 5 minutes and cooling the plate at 4° C. for 3 minutes. […] Following incubation, the fluorescence was measured with a plate reader using excitation at 380 nm and emission at 460 nm. […] Concentration-response-curves and IC50 values (Table 17) were generated using Collaborative Drug Discovery software.

QPCTL = QPCTL (Homo sapiens (Human), UniProt Q9NXS2); assay: QPCTL Enzymatic Activity Assay (coupled-enzyme fluorescent assay, H-Gln-AMC substrate); type: biochemical; settings: recombinant truncated human QPCTL 10-12 nM, 10 μM H-Gln-AMC; read-out: QPCTL Inhibition IC50
Protocol: Protein expression was induced when the bacterial culture OD600 was approximately 0.7 using 1 mM IPTG and the cells incubated at 20° C. for approximately 16 hours. The QPCTL was purified using nickel column purification, digested by TEV, followed by a second nickel column purification. The protein was further purified by size-exclusion chromatography using a Superdex™ 75 column. The final protein was concentrated using ultrafiltration tubes at a molecular weight cutoff of 10 kilodaltons and stored frozen in protein buffer (25 mM Tris pH 8.3, 150 mM NaCl).
QPCTL activity was measured in a coupled-enzyme assay using the QPCTL substrate, glutamine-7-amido-4-methylcoumarin (H-Gln-AMC, Bachem), which is converted to pyroglutamyl-AMC by QPCTL. Pyroglutamyl-AMC is then converted to the fluorescent molecule, AMC, by incubation with the human enzyme pyroglutamyl peptidase-1. […] Final concentrations of DMSO and test compounds were 2% and 30-100 μM, respectively. Following the incubation, H-Gln-AMC substrate was diluted in assay buffer and added to each well for a final concentration of 10 μM. The reaction was incubated for 60 min at 37° C., before stopping it by boiling at 100° C. for 5 minutes and cooling the plate at 4° C. for 3 minutes. […] Following incubation, the fluorescence was measured with a plate reader using excitation at 380 nm and emission at 460 nm. […] Concentration-response-curves and IC50 values (Table 17) were generated using curve fit software.

Chain of QPCT (rhQPCT) (Q16769 29-361): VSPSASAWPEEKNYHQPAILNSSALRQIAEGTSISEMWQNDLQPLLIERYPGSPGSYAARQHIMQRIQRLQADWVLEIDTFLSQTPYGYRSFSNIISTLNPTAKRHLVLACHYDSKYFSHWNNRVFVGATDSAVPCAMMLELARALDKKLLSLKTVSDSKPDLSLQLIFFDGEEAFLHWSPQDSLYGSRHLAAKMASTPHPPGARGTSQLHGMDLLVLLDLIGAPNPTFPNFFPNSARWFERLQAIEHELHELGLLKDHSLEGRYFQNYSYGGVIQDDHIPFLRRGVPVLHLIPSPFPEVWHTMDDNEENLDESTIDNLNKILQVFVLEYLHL
Chain of QPCTL (Q9NXS2 53-382): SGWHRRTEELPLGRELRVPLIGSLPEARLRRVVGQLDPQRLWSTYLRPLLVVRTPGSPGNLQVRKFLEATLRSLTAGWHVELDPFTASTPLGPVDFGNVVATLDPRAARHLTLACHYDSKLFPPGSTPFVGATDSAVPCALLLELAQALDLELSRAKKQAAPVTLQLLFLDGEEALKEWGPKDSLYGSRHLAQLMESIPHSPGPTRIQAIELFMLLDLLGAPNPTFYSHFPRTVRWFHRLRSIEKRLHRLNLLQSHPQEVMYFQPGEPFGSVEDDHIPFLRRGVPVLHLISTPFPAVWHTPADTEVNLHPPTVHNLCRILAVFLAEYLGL

Row | Compound | IC50 (QPCT (rhQPCT)) [nM] | IC50 (QPCTL) [nM]
1 | Cc1cc(-c2c(F)ccc(C#N)c2N2CCC(c3nncn3C)CC2)cnn1 [Example 59, 4-fluoro-2-(4-(4-methyl-4H-1,2,4-triazol-3-yl)piperidin-1-yl)-3-(6-methylpyridazin-4-yl)benzonitrile] | 100 to 1000 | 100 to 1000
2 | Cc1cc(-c2ccc(-c3ccn(C)n3)c(C#N)c2N2CCC(c3nncn3C)CC2)cnn1 [Example 61, 6-(1-methyl-1H-pyrazol-3-yl)-2-(4-(4-methyl-4H-1,2,4-triazol-3-yl)piperidin-1-yl)-3-(6-methylpyridazin-4-yl)benzonitrile] | < 100 | < 100
3 | N#Cc1cccc(-c2ccc(F)nc2)c1N1CCC(c2nncs2)CC1 [Example 72, 2-(4-(1,3,4-thiadiazol-2-yl)piperidin-1-yl)-3-(6-fluoropyridin-3-yl)benzonitrile] | 100 to 1000 | 100 to 1000
4 | Cc1cc(-c2ccc(-c3cn[nH]c3)c(C#N)c2N2CCC(c3nncn3C)CC2)cnn1 [Example 74, 2-(4-(4-methyl-4H-1,2,4-triazol-3-yl)piperidin-1-yl)-3-(6-methylpyridazin-4-yl)-6-(1H-pyrazol-4-yl)benzonitrile] | < 100 | < 100
5 | Cn1cnnc1C1[C@H]2CN(c3c(C#N)cccc3-c3ccc(F)nc3)C[C@@H]12 (stereo partly drawn) [Example 75, 3-(6-fluoropyridin-3-yl)-2-((1R,5S)-6-(4-methyl-4H-1,2,4-triazol-3-yl)-3-azabicyclo[3.1.0]hexan-3-yl)benzonitrile] | 100 to 1000 | 100 to 1000
6 | Cn1ncc(-c2cccc(C#N)c2N2CCC(c3nncn3C)CC2)n1 [Example 99, 3-(2-methyl-2H-1,2,3-triazol-4-yl)-2-(4-(4-methyl-4H-1,2,4-triazol-3-yl)piperidin-1-yl)benzonitrile] | < 100 | 100 to 1000
7 | Cn1cnnc1C1CCN(c2c(C#N)cccc2-c2ccc(F)c(F)c2)CC1 [Example 102, 3′,4′-difluoro-2-(4-(4-methyl-4H-1,2,4-triazol-3-yl)piperidin-1-yl)-[1,1′-biphenyl]-3-carbonitrile] | < 100 | 100 to 1000
8 | Cn1cnnc1C1CCN(c2c(C#N)cccc2-c2ccc(F)cc2F)CC1 [Example 103, 2′,4′-difluoro-2-(4-(4-methyl-4H-1,2,4-triazol-3-yl)piperidin-1-yl)-[1,1′-biphenyl]-3-carbonitrile] | < 100 | 100 to 1000
9 | Cn1cnnc1C1CCN(c2c(C#N)cccc2-c2cnnn2C)CC1 [Example 104, 3-(1-methyl-1H-1,2,3-triazol-5-yl)-2-(4-(4-methyl-4H-1,2,4-triazol-3-yl)piperidin-1-yl)benzonitrile] | 100 to 1000 | 100 to 1000
10 | Cn1cnnc1C1CCN(c2c(C#N)cccc2-c2cccc(C=O)c2)CC1 [Example 110, 3′-formyl-2-(4-(4-methyl-4H-1,2,4-triazol-3-yl)piperidin-1-yl)-[1,1′-biphenyl]-3-carbonitrile] | < 100 | 100 to 1000
11 | Cn1cnnc1C1CCN(c2c(C#N)cccc2-c2ccc(B(O)O)cc2)CC1 [Example 111, (3′-cyano-2′-(4-(4-methyl-4H-1,2,4-triazol-3-yl)piperidin-1-yl)-[1,1′-biphenyl]-4-yl)boronic acid] | < 100 | 100 to 1000
12 | Cn1cnnc1C1CCN(c2c(C#N)cccc2-c2cccc(B(O)O)c2)CC1 [Example 112, (3′-cyano-2′-(4-(4-methyl-4H-1,2,4-triazol-3-yl)piperidin-1-yl)-[1,1′-biphenyl]-3-yl)boronic acid] | < 100 | < 100
13 | Cn1cnnc1C1CCN(c2c(C#N)cccc2-c2ccc3[nH]nc(O)c3c2)CC1 [Example 113, 3-(3-hydroxy-1H-indazol-5-yl)-2-(4-(4-methyl-4H-1,2,4-triazol-3-yl)piperidin-1-yl)benzonitrile] | < 100 | < 100
14 | Cn1cnnc1C1CCN(c2c(C#N)cccc2-c2cncc(Br)c2)CC1 [Example 114, 3-(5-bromopyridin-3-yl)-2-(4-(4-methyl-4H-1,2,4-triazol-3-yl)piperidin-1-yl)benzonitrile] | < 100 | < 100
15 | Cn1cnnc1C1CCN(c2c(C#N)cccc2-c2ccc(O)nc2)CC1 [Example 116, 3-(6-hydroxypyridin-3-yl)-2-(4-(4-methyl-4H-1,2,4-triazol-3-yl)piperidin-1-yl)benzonitrile] | < 100 | < 100
16 | Cn1cnnc1C1CCN(c2c(C#N)cccc2-c2cncc(OS(=O)(=O)F)c2)CC1 [Example 118, 5-(3-cyano-2-(4-(4-methyl-4H-1,2,4-triazol-3-yl)piperidin-1-yl)phenyl)pyridin-3-yl sulfurofluoridate] | < 100 | < 100
17 | Cn1cnnc1C1CCN(c2c(C#N)cccc2-c2ccc(OS(=O)(=O)F)nc2)CC1 [Example 119, 5-(3-cyano-2-(4-(4-methyl-4H-1,2,4-triazol-3-yl)piperidin-1-yl)phenyl)pyridin-2-yl sulfurofluoridate] | 100 to 1000 | < 100
18 | Cn1cnnc1C1CCN(c2c(C#N)cccc2-c2ccc3c(c2)B(O)OC3)CC1 [Example 121, 3-(1-hydroxy-1,3-dihydrobenzo[c][1,2]oxaborol-6-yl)-2-(4-(4-methyl-4H-1,2,4-triazol-3-yl)piperidin-1-yl)benzonitrile] | 100 to 1000 | 100 to 1000
19 | Cn1cnnc1C1CCN(c2c(C#N)cccc2-c2cnc3cn[nH]c3c2)CC1 [Example 125, 2-(4-(4-methyl-4H-1,2,4-triazol-3-yl)piperidin-1-yl)-3-(1H-pyrazolo[4,3-b]pyridin-6-yl)benzonitrile] | < 100 | 100 to 1000
20 | Cn1ccc(-c2ccc(-c3cncc(B(O)O)c3)c(N3CCC(c4nncn4C)CC3)c2C#N)n1 [Example 126, (5-(3-cyano-4-(1-methyl-1H-pyrazol-3-yl)-2-(4-(4-methyl-4H-1,2,4-triazol-3-yl)piperidin-1-yl)phenyl)pyridin-3-yl)boronic acid] | < 100 | < 100
21 | Cn1cnnc1N1CCN(c2c(C#N)ccc(F)c2-c2ccc(F)nc2)CC1 [Example 127, 4-fluoro-3-(6-fluoropyridin-3-yl)-2-(4-(4-methyl-4H-1,2,4-triazol-3-yl)piperazin-1-yl)benzonitrile] | < 100 | < 100
22 | C#Cc1ccc(-c2cccc(C#N)c2N2CCC(c3nncn3C)CC2)cc1C=O [Example 128, 4′-ethynyl-3′-formyl-2-(4-(4-methyl-4H-1,2,4-triazol-3-yl)piperidin-1-yl)-[1,1′-biphenyl]-3-carbonitrile] | < 100 | 100 to 1000
23 | Cn1cnnc1N1CCN(c2c(-c3ccc(F)nc3)ccc(C3CC3)c2C#N)CC1 [Example 129, 6-cyclopropyl-3-(6-fluoropyridin-3-yl)-2-(4-(4-methyl-4H-1,2,4-triazol-3-yl)piperazin-1-yl)benzonitrile] | < 100 | < 100
24 | Cn1cnnc1C1CCN(c2c(C#N)cc(F)cc2-c2ccc(F)nc2)CC1 [Example 130, 5-fluoro-3-(6-fluoropyridin-3-yl)-2-(4-(4-methyl-4H-1,2,4-triazol-3-yl)piperidin-1-yl)benzonitrile] | 1000 to 10000 | 1000 to 10000
